Assay results from US20180263979A1, “COMBINATION OF RAF INHIBITORS AND AURORA KINASE INHIBITORS” (MILLENNIUM PHARMACEUTICALS, INC., priority 2014, published 2018).
Where two headings read alike, the source gives them in different places.

What was measured:
[1] = tested on: SK-MEL-2 human melanoma xenograft (NRAS mutant); type: in vivo; details: for Non-Specific Deaths / Regression (100%) / Tumor Free on Day 74: n=8; for Delta AUC: vs vehicle
Experimental: Eight week old female athymic NCr-nu/nu mice were inoculated SC with 30-40 mg tumor fragments, propagated in an in vivo passage, in the area of the right flank. Tumor growth was monitored with vernier calipers and the tumor volume was calculated using the formula (0.5×[length×width^2]). When the mean tumor volume (MTV) reached approximately 167 mm^3 (range of 100-245 mm^3) animals were randomized into 12 treatment groups (n=8/group). The animals were dosed beginning 12 days after tumor inoculation with either vehicles or test compounds. The first day of treatment was designated as Day 0.
The 10 mg/mL solution was diluted with 100% PEG 400 for the lower dose.
Sodium alisertib was formulated in a half volume of 20% HPBCD in WFI and then diluted to a final volume (10% HPBCD/1% NaHCO3 in WFI) with 2% sodium bicarbonate in WFI.
The 2 vehicles, 100% PEG 400 (Vehicle 1) and 10% HPBCD/1% NaHCO3 in WFI (Vehicle 2) were administered (0.05 mL/10 g BW) concomitantly to mice in the vehicle group.
Tumor size and body weight were measured BIW beginning on the first day of treatment. Animals were terminated when their tumor reached approximately 2000 mm3, and the study was terminated on Day 62 post treatment initiation.
Inhibition of tumor growth was determined by calculating the percent TGI (MTV of the vehicle group−MTV of a treated group)/MTV of the vehicle group on Day 20 post treatment initiation. Statistical comparisons of tumor growth between treatment groups and vehicle were conducted using a linear mixed effects regression analysis on the ΔAUC.
Additional endpoints used to evaluate efficacy were: nonspecific deaths, complete tumor response, and the number of tumor-free survivors (TFS), defined as no measurable tumor observed on the last day of data collection prior to study termination (Day 62 post treatment initiation). A complete response (CR) was defined as a decrease in tumor mass to an undetectable size (<32 mm3).
The differences in the tumor growth trends over time between the vehicle control and treatment groups were assessed using linear mixed effects regression models. These models take into account that each animal was measured at multiple time points. A model was fit for the comparison, and the areas under the tumor volume-versus-time curve (AUCs) for control and treatment groups were calculated using the values predicted from the model.
These values were compared across treatment groups to assess whether the differences in trends over time were statistically significant. To compare pairs of treatment groups, the following mixed-effects linear regression model was fit to the data using the maximum likelihood method:
Where Yijk is the log 10 tumor value at the jth time point of the kth animal in the ith treatment, Yi0k is the day 0 (baseline) log 10 tumor value in the kth animal in the ith treatment, dayj was the median-centered time point and (along with day2j) was treated as a continuous variable, and eijk is the residual error. A spatial power law covariance matrix was used to account for the repeated measurements on the same animal over time. Interaction terms as well as day2j terms were removed if there were not statistically significant.
The −2 log likelihood of the full model was compared to one without any treatment terms (reduced model) and the difference in the values was tested using a Chi-squared test. The degrees of freedom of the test were calculated as the difference between the degrees of freedom of the full model and that of the reduced model.
The predicted differences in the log tumor values (Yijk-Yi0k, which can be interpreted as log 10 (fold change from day 0)) were taken from the above models to calculate mean AUC values for each treatment group. A dAUC value was then calculated as: […]
For synergy analysis, the observed differences in the log tumor values were used to calculate AUC values for each animal. […]

[2] = tested on: A375 melanoma xenograft (B-Raf mutant); test: In vivo tumor efficacy, B-Raf mutated A375 human melanoma xenograft model; design: species or system Mouse (Mus musculus) Athymic Balb/c Nude; details: for Mean Maximum % BWL: Day 0 to Day 21; for TGI: Day 21 post treatment initiation
Experimental: Each animal was inoculated with 3×10^6 A375 tumor cells (in 0.1 mL, 1:1 with Matrigel) into the right flank for tumor model development. Body weight and the tumor growth were monitored twice weekly. Tumor size was measured to the nearest 0.1 mm using vernier calipers and applying the formula V=W2×L/2, where V=volume, W=width, and L=length for the tumor xenograft. Xenografts were allowed to grow until they reached an average size of approximately 195 min3, 11 days after inoculation.
Sodium alisertib was formulated in 10% HPβCD plus 1% NaHCO3 in water for injection (WFI) (Vehicle 2). Alisertib was prepared and stored at room temperature (18 to 25° C.).
Animals in the vehicle treatment group were given both Vehicle 1 and Vehicle 2.
The dose volume for vehicle or compound was 5 mL/kg body weight.
Tumor size and body weight were measured twice weekly beginning on the day of animal grouping (e.g., Day 0). Animals were terminated when their tumor reached approximately 2000 mm3 and the study was terminated on Day 38 post treatment initiation.
Inhibition of tumor growth was determined by calculating the percent TGI (MTV of the vehicle group−MTV of a treated group)/MTV of the vehicle group] on Day 21 post treatment initiation. Statistical comparisons of tumor growth between treatment groups and vehicle were conducted using a linear mixed effects regression analysis on the ΔAUC.
Statistical analysis was carried out as described in Example 2.

[3] = alisertib 20 mg/kg/inj PO Q1D x 21 from Day 12 (+Vehicle 1)
[4] = alisertib 10 mg/kg PO QD Days 1-21 (+Vehicle 1)
[5] = alisertib 20 mg/kg PO QD Days 1-21 (+Vehicle 1)
[6] = Compound A 12.5 mg/kg/inj PO Q1D x 21 from Day 12 (+Vehicle 2)
[7] = Compound A 50 mg/kg/inj PO Q3D x 2/3 wks (BIW) from Day 12 (+Vehicle 2)
[8] = Compound A 12.5 mg/kg PO QD Days 1-21 (+Vehicle 2)
[9] = Compound A 50 mg/kg PO BIW Days 1, 4, 8, 11, 15, 18 (+Vehicle 2)

## COc1cc(Nc2ncc3c(n2)-c2ccc(Cl)cc2C(c2c(F)cccc2OC)=NC3)ccc1C(=O)O [alisertib, 4-{[9-chloro-7-(2-fluoro-6-methoxyphenyl)-5H-pyrimido[5,4-d][2]benzazepin-2-yl]amino}-2-methoxybenzoic acid, reference compound]
[1]; [3]
  Mean Tumor Volume on Day 32: 872 mm^3
  TGI on Day 32: 60.3%
  Non-Specific Deaths: 0
  Regression (100%): 0
  Tumor Free on Day 74: 0
  Delta AUC: 30.9
[2]; [4]
  Mean Maximum % BWL: 0%
  TGI: 21.7%
[2]; [5]
  Mean Maximum % BWL: 0%
  TGI: 40.7%

## C[C@@H](NC(=O)c1ncnc(N)c1Cl)c1ncc(C(=O)Nc2cc(C(F)(F)F)c(Cl)cn2)s1 [Compound A, (R)-2-(1-(6-amino-5-chloropyrimidine-4-carboxamide)ethyl)-N-(5-chloro-4-(trifluoromethyl)pyridin-2-yl)thiazole-5-carboxamide]
[1]; [6]
  Mean Tumor Volume on Day 32: 645 mm^3
  TGI on Day 32: 70.7%
  Non-Specific Deaths: 0
  Regression (100%): 0
  Tumor Free on Day 74: 0
  Delta AUC: 37.3
[1]; [7]
  Mean Tumor Volume on Day 32: 816 mm^3
  TGI on Day 32: 62.9%
  Non-Specific Deaths: 0
  Regression (100%): 0
  Tumor Free on Day 74: 0
  Delta AUC: 35.6
[2]; [8]
  Mean Maximum % BWL: 0%
  TGI: 76.4%
[2]; [9]
  Mean Maximum % BWL: 0%
  TGI: 45.3%
